Laboratory results as given in PubChem BioAssay (NCI).
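Tested at 5 concentrations; 48 h exposure; 96-well plates; endpoints linearly interpolated, else capped at highest concentration. Here, GI50 denotes the concentration required for 50% inhibition of growth. TGI: total growth inhibition.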

Legend:
Test in all cases: NCI anticancer screen, dose series, 48 h
786-0 renal = tested on: 786-0 renal
A498 renal = tested on: A498 renal
A549 NSCLC = tested on: A549 NSCLC
BT-549 breast = tested on: BT-549 breast
CCRF-CEM leukemia = tested on: CCRF-CEM leukemia
DU-145 prostate = tested on: DU-145 prostate
EKVX NSCLC = tested on: EKVX NSCLC
HCC-2998 colon = tested on: HCC-2998 colon
HCT-116 colon = tested on: HCT-116 colon
HCT-15 colon = tested on: HCT-15 colon
HL-60(TB) leukemia = tested on: HL-60(TB) leukemia
HOP-62 NSCLC = tested on: HOP-62 NSCLC
HOP-92 NSCLC = tested on: HOP-92 NSCLC
HT29 colon = tested on: HT29 colon
IGROV1 ovarian = tested on: IGROV1 ovarian
K-562 leukemia = tested on: K-562 leukemia
KM12 colon = tested on: KM12 colon
LOX IMVI melanoma = tested on: LOX IMVI melanoma
M14 melanoma = tested on: M14 melanoma
MALME-3M melanoma = tested on: MALME-3M melanoma
MCF7 breast = tested on: MCF7 breast
MDA-MB-231 breast = tested on: MDA-MB-231 breast
MDA-MB-435 = tested on: MDA-MB-435
MOLT-4 leukemia = tested on: MOLT-4 leukemia
NCI-H226 lung = tested on: NCI-H226 lung
NCI-H23 lung = tested on: NCI-H23 lung
NCI-H460 lung = tested on: NCI-H460 lung
NCI-H522 lung = tested on: NCI-H522 lung
NCI/ADR-RES ovarian = tested on: NCI/ADR-RES ovarian
OVCAR-3 ovarian = tested on: OVCAR-3 ovarian
OVCAR-4 ovarian = tested on: OVCAR-4 ovarian
OVCAR-5 ovarian = tested on: OVCAR-5 ovarian
OVCAR-8 ovarian = tested on: OVCAR-8 ovarian
PC-3 prostate = tested on: PC-3 prostate
RPMI-8226 leukemia = tested on: RPMI-8226 leukemia
RXF 393 renal = tested on: RXF 393 renal
SF-268 CNS = tested on: SF-268 CNS
SF-295 CNS = tested on: SF-295 CNS
SF-539 CNS = tested on: SF-539 CNS
SK-MEL-2 melanoma = tested on: SK-MEL-2 melanoma
SK-MEL-28 melanoma = tested on: SK-MEL-28 melanoma
SK-MEL-5 melanoma = tested on: SK-MEL-5 melanoma
SK-OV-3 ovarian = tested on: SK-OV-3 ovarian
SN12C renal = tested on: SN12C renal
SNB-19 CNS = tested on: SNB-19 CNS
SNB-75 CNS = tested on: SNB-75 CNS
SR leukemia = tested on: SR leukemia
SW-620 colon = tested on: SW-620 colon
T-47D breast = tested on: T-47D breast
TK-10 renal = tested on: TK-10 renal
U251 CNS = tested on: U251 CNS
UACC-257 melanoma = tested on: UACC-257 melanoma
UACC-62 melanoma = tested on: UACC-62 melanoma
UO-31 renal = tested on: UO-31 renal

COc1ccc2[nH]c(=O)c(/C=C/C(=O)c3ccccc3OC)cc2c1
GI50 (786-0 renal): 0.378 µM | TGI (786-0 renal): 1.56 µM | GI50 (A498 renal): 0.656 µM | TGI (A498 renal): 4.55 µM | GI50 (A549 NSCLC): 2.09 µM | TGI (A549 NSCLC): 10.4 µM | GI50 (BT-549 breast): 0.387 µM | TGI (BT-549 breast): 2.42 µM | GI50 (CCRF-CEM leukemia): 0.392 µM | TGI (CCRF-CEM leukemia): > 100 µM | GI50 (DU-145 prostate): 0.529 µM | TGI (DU-145 prostate): 1.96 µM | GI50 (EKVX NSCLC): 2.05 µM | TGI (EKVX NSCLC): 10.5 µM | GI50 (HCC-2998 colon): 1.57 µM | TGI (HCC-2998 colon): 3.03 µM | GI50 (HCT-116 colon): 0.348 µM | TGI (HCT-116 colon): 1.48 µM | GI50 (HCT-15 colon): 0.395 µM | TGI (HCT-15 colon): 2.05 µM | GI50 (HL-60(TB) leukemia): 0.206 µM | TGI (HL-60(TB) leukemia): 0.883 µM | GI50 (HOP-62 NSCLC): 1.24 µM | TGI (HOP-62 NSCLC): 5.32 µM | GI50 (HOP-92 NSCLC): 1.57 µM | TGI (HOP-92 NSCLC): 6.17 µM | GI50 (HT29 colon): 0.293 µM | TGI (HT29 colon): 1.37 µM | GI50 (IGROV1 ovarian): 0.582 µM | TGI (IGROV1 ovarian): 17 µM | GI50 (K-562 leukemia): 0.162 µM | TGI (K-562 leukemia): > 100 µM | GI50 (KM12 colon): 0.321 µM | TGI (KM12 colon): 1.58 µM | GI50 (LOX IMVI melanoma): 0.379 µM | TGI (LOX IMVI melanoma): 1.61 µM | GI50 (M14 melanoma): 0.278 µM | TGI (M14 melanoma): 1.41 µM | GI50 (MALME-3M melanoma): 0.766 µM | TGI (MALME-3M melanoma): 8.09 µM | GI50 (MCF7 breast): 0.312 µM | TGI (MCF7 breast): 7.48 µM | GI50 (MDA-MB-231 breast): 1.44 µM | TGI (MDA-MB-231 breast): 11 µM | GI50 (MDA-MB-435): 0.0564 µM | TGI (MDA-MB-435): 0.275 µM | GI50 (MOLT-4 leukemia): 0.421 µM | TGI (MOLT-4 leukemia): 27.1 µM | GI50 (NCI-H226 lung): 3.34 µM | TGI (NCI-H226 lung): 18.5 µM | GI50 (NCI-H23 lung): 1.33 µM | TGI (NCI-H23 lung): 3.93 µM | GI50 (NCI-H460 lung): 0.38 µM | TGI (NCI-H460 lung): 2.25 µM | GI50 (NCI-H522 lung): 0.352 µM | TGI (NCI-H522 lung): 2.06 µM | GI50 (NCI/ADR-RES ovarian): 0.273 µM | TGI (NCI/ADR-RES ovarian): 20 µM | GI50 (OVCAR-3 ovarian): 0.359 µM | TGI (OVCAR-3 ovarian): 1.64 µM | GI50 (OVCAR-4 ovarian): 4.07 µM | TGI (OVCAR-4 ovarian): 23.2 µM | GI50 (OVCAR-5 ovarian): 1.97 µM | TGI (OVCAR-5 ovarian): 10.4 µM | GI50 (OVCAR-8 ovarian): 0.874 µM | TGI (OVCAR-8 ovarian): 11.6 µM | GI50 (PC-3 prostate): 0.842 µM | TGI (PC-3 prostate): 3.75 µM | GI50 (RPMI-8226 leukemia): 0.385 µM | TGI (RPMI-8226 leukemia): 2.21 µM | GI50 (RXF 393 renal): 1.02 µM | TGI (RXF 393 renal): 2.57 µM | GI50 (SF-268 CNS): 0.69 µM | TGI (SF-268 CNS): 10.5 µM | GI50 (SF-295 CNS): 0.529 µM | TGI (SF-295 CNS): 12.1 µM | GI50 (SF-539 CNS): 0.443 µM | TGI (SF-539 CNS): 2.49 µM | GI50 (SK-MEL-2 melanoma): 0.694 µM | TGI (SK-MEL-2 melanoma): 4.39 µM | GI50 (SK-MEL-28 melanoma): 1.52 µM | TGI (SK-MEL-28 melanoma): 7.31 µM | GI50 (SK-MEL-5 melanoma): 0.728 µM | TGI (SK-MEL-5 melanoma): 2.08 µM | GI50 (SK-OV-3 ovarian): 2.23 µM | TGI (SK-OV-3 ovarian): 12.8 µM | GI50 (SN12C renal): 0.537 µM | TGI (SN12C renal): 10.3 µM | GI50 (SNB-19 CNS): 0.362 µM | TGI (SNB-19 CNS): 1.79 µM | GI50 (SNB-75 CNS): 0.47 µM | TGI (SNB-75 CNS): 14.2 µM | GI50 (SR leukemia): 0.0656 µM | TGI (SR leukemia): 10.3 µM | GI50 (SW-620 colon): 0.335 µM | TGI (SW-620 colon): 2.24 µM | GI50 (T-47D breast): 1.06 µM | TGI (T-47D breast): 11.8 µM | GI50 (TK-10 renal): 2.31 µM | TGI (TK-10 renal): 13.1 µM | GI50 (U251 CNS): 0.521 µM | TGI (U251 CNS): 1.7 µM | GI50 (UACC-257 melanoma): 1.38 µM | TGI (UACC-257 melanoma): 3.05 µM | GI50 (UACC-62 melanoma): 0.478 µM | TGI (UACC-62 melanoma): 2.97 µM | GI50 (UO-31 renal): 0.958 µM | TGI (UO-31 renal): 2.28 µM
